According to ChEMBL document CHEMBL5390201, “The Natural Alkaloid (-)-N-Hydroxyapiosporamide Suppresses Colorectal Tumor Progression as an NF-κB Pathway Inhibitor by Targeting the TAK1-TRAF6 Complex” (J Nat Prod, 2023):
The source made the active and inactive calls. The calls are words filed in the database; no cut-off is given here.

Experiments:
Mus musculus [1] = test: (§1) In vivo inhibition of NFkappaB activation in AOM/DSS-induced inflammatory bowel disease BALB/c mouse model assessed as inhibition of serum TNF-alpha production at 5 to 10 mg/kg, ip pretreated with AOM for 7 days further replaced with DSS for 7 days and repeated for 2 times followed by every 2 days compound treatment for […] starting from day 50 by ELISA; type: functional, organism-based; settings: dose 5-10 mg/kg, time 21.0 day
Mus musculus [2] = test: Anti-inflammatory activity in AOM/DSS-induced BALB/c mouse model inflammatory bowel disease assessed as reduction in transformation into adenocarcinoma at 10 mg/kg, ip pretreated with AOM for 7 days further replaced with DSS for 7 days and repeated for 2 times followed by every 2 days compound treatment for […] starting from day 50 by H and E staining based analysis; type: functional, organism-based; settings: time 21.0 day
[3] = Half life in Sprague-Dawley rat at 10 mg/kg, ip measured for 24 hrs by HPLC-MS/MS analysis; type: ADME, organism-based; settings: in vivo
[4] = biological target: T1, Nuclear factor NF-kappa-B complex (Homo sapiens) (UniProt Q00653+P19838+Q04206); test: Inhibition of TNF-alpha induced NFkappaB activation in human HT-29 cells assessed as inhibition of IkappaBalpha degradation at 1 to 10 uM pretreated for 24 hrs followed by TNFalpha stimulation for 10 mins by Western blot analysis; type: cell-based; settings: dose 1-10 µM, time 1450.0 min
T1 sequence (P19838 whole entry, looked up): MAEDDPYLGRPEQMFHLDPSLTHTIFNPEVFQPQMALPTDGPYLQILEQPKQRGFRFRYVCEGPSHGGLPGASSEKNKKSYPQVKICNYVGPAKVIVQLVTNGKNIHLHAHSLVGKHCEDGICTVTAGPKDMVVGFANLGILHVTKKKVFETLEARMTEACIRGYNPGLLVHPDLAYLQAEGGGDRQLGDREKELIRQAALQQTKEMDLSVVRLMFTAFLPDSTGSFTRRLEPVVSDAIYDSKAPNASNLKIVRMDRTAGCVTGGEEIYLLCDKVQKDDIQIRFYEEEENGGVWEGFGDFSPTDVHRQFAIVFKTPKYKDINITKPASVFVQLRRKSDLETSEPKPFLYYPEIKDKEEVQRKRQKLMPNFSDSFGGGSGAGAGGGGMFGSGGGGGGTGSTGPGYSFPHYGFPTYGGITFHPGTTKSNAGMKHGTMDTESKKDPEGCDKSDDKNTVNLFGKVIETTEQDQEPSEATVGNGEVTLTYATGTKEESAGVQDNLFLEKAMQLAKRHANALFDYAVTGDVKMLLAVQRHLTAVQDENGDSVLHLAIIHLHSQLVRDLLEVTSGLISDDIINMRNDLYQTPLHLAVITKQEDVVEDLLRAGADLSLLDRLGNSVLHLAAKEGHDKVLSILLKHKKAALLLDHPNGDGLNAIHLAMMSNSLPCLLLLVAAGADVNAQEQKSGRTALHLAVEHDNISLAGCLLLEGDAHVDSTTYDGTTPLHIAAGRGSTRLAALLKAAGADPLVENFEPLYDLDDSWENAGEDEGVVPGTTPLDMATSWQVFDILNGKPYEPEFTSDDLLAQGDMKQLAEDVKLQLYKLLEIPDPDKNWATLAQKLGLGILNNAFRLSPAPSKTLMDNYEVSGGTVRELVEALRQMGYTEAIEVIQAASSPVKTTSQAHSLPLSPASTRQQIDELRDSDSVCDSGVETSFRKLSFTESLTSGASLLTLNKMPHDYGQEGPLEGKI
T1 sequence (Q00653 whole entry, looked up): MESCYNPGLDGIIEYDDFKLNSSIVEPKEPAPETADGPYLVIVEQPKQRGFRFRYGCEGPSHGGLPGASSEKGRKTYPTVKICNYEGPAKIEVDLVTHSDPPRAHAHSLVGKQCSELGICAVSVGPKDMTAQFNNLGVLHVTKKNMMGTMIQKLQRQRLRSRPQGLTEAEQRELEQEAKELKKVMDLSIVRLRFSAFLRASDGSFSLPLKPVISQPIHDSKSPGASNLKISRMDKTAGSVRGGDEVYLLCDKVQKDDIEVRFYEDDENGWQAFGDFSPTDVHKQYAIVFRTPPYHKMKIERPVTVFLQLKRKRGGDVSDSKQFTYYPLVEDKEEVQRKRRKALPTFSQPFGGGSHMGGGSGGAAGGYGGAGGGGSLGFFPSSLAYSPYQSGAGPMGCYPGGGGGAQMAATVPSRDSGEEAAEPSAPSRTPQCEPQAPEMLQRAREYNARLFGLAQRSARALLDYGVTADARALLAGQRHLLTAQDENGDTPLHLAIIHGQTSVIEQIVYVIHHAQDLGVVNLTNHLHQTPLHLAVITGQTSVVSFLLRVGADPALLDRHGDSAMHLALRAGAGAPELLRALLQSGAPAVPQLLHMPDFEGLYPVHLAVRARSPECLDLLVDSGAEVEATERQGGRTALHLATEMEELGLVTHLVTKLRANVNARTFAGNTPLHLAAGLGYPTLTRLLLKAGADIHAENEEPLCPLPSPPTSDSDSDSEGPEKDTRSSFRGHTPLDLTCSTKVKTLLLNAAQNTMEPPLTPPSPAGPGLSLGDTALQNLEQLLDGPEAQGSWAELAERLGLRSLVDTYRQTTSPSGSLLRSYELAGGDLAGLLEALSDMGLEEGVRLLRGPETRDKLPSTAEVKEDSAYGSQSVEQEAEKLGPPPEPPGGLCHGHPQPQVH
T1 sequence (Q04206 whole entry, looked up): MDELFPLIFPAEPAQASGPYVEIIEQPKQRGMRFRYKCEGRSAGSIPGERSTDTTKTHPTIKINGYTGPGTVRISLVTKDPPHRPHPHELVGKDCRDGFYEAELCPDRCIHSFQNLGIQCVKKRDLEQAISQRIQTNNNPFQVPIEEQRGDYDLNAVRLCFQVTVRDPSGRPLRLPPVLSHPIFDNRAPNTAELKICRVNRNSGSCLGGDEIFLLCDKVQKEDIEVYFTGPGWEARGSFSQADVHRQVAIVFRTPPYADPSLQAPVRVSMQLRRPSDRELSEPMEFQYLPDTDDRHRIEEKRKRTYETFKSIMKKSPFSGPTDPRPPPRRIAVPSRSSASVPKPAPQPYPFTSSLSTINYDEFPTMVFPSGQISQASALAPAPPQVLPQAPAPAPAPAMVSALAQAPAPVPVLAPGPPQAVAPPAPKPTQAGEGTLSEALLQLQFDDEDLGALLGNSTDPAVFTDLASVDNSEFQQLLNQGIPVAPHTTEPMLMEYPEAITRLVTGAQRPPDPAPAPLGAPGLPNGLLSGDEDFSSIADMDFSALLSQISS

HCT-116 [5] = test: Cytotoxicity against human HCT-116 cells assessed as decrease in cell viability incubated for 48 hrs by SRB assay; type: functional, cell-based; settings: HCT-116, 48 h
HCT-116 [6] = test: Induction of cell death in human HCT-116 cells at 0.5 to 10 uM pretreated with Z-VAD-FMK for 1 hr followed by compound addition and measured after 24 hrs by SRB assay; type: functional, cell-based; settings: dose 0.5-10 µM
HT-29 [7] = test: Induction of cell cycle arrest in human HT-29 cells assessed as accumulation of cells at S phase at 1 uM by RNase/PI staining based flow cytometry analysis (reference value: 39.34%); type: functional
HCT-116 [8] = test: Antitumor activity against human HCT-116 cells xenografted in athymic nude BALB/c mouse assessed as induction of autophagy by measuring reduction in p62 expression in tumor at 15 mg/kg, ip administered every other day and measured after 14 days by immunohistochemistry analysis; type: functional, organism-based; settings: time 14.0 day
Mus musculus [9] = test: Anti-inflammatory activity in AOM/DSS-induced BALB/c mouse model inflammatory bowel disease assessed as reduction in tumor length at 5 to 10 mg/kg, ip pretreated with AOM for 7 days further replaced with DSS for 7 days and repeated for 2 times followed by every 2 days compound treatment for […] starting from day 50 and measured once a week; type: functional, organism-based; settings: dose 5-10 mg/kg, time 21.0 day
Mus musculus [10] = test: as §1, with “IL-8” for “TNF-alpha”; type: functional, organism-based; settings: dose 5-10 mg/kg, time 21.0 day
HCT-116 [11] = test: Induction of cell cycle arrest in human HCT-116 cells assessed as accumulation of cells at S phase at 5 uM by RNase/PI staining based flow cytometry analysis (reference value: 43.77 %); type: functional
HT-29 [12] = test: Induction of apoptosis in human HT-29 cells assessed as late apoptotic cells at 1 uM incubated for 24 hrs by Annexin V-FITC/PI staining based flow cytometric analysis (reference value: 1.56 %); type: functional
HT-29 [13] = test: Induction of apoptosis in human HT-29 cells assessed as early apoptotic cells at 5 uM incubated for 24 hrs by Annexin V-FITC/PI staining based flow cytometric analysis (reference value: 4.39 %); type: functional
HCT-116 [14] = test: Induction of apoptosis in human HCT-116 cells assessed as late apoptotic cells at 0.25 uM incubated for 24 hrs by Annexin V-FITC/PI staining based flow cytometric analysis (reference value: 2.9 %); type: functional
HT-29 [15] = test: Induction of apoptosis in human HT-29 cells assessed as viable cells at 5 uM incubated for 24 hrs by Annexin V-FITC/PI staining based flow cytometric analysis (reference value: 93 %); type: functional; settings: read-out: Activity
HCT-116 [16] = test: Induction of apoptosis in human HCT-116 cells assessed as necrotic cells at 5 uM incubated for 24 hrs by Annexin V-FITC/PI staining based flow cytometric analysis (reference value: 1.1 %); type: functional
[17] = Toxicity in athymic nude BALB/c mouse xenografted with human HCT-116 cells assessed as pathological changes in spleen at 5 to 15 mg/kg, ip administered every other day and measured after 14 days by hematoxylin and eosin staining-based microscopic analysis; type: organism-based; settings: in vivo, 336 h, dose 5-15 mg/kg, time 14 day
[18] = biological target: T1, Nuclear factor NF-kappa-B complex (Homo sapiens); test: Inhibition of TNF-alpha induced NFkappaB activation in human HCT-116 cells assessed as inhibition of IkappaBalpha phosphorylation at 1 to 10 uM pretreated for 24 hrs followed by TNFalpha stimulation for 10 mins by Western blot analysis; type: cell-based; settings: dose 1-10 µM, time 1450.0 min
HT-29 [19] = test: Induction of apoptosis in human HT-29 cells assessed as early apoptotic cells at 5 uM incubated for 24 hrs by Annexin V-FITC/PI staining based flow cytometric analysis (reference value: 5.29 %); type: functional
HT-29 [20] = test: Induction of autophagy in human HT-29 cells assessed as increase in autophagic vesicles at 1 to 10 uM incubated for 24 hrs MDC staining-based fluorescence microscopy; type: functional, cell-based; settings: dose 1-10 µM
HCT-116 [21] = test: Induction of apoptosis in human HCT-116 cells assessed as viable cells at 5 uM incubated for 24 hrs by Annexin V-FITC/PI staining based flow cytometric analysis (reference value: 74.3 %); type: functional; settings: read-out: Activity
Mus musculus [22] = test: In vivo inhibition of NFkappaB activation in athymic BALB/c mouse xenografted with human HCT-116 cells assessed as reduction in IL-8 gene expression in tumor at 15 mg/kg, ip administered every other day and measured after 14 days by qRT-PCR analysis; type: functional, organism-based; settings: time 14.0 day
HT-29 [23] = test: Induction of autophagy in human HT-29 cells transfected with GFP-LC3 assessed as increase in LC3 dot puncta at 1 to 10 uM incubated for 24 hrs by fluorescence microscopy; type: functional, cell-based; settings: dose 1-10 µM
HT-29 [24] = test: Induction of apoptosis in human HT-29 cells assessed as early apoptotic cells at 0.5 uM incubated for 24 hrs by Annexin V-FITC/PI staining based flow cytometric analysis (reference value: 5.29 %); type: functional
[25] = biological target: T1, Nuclear factor NF-kappa-B complex (Homo sapiens); test: Inhibition of TNF-alpha induced NFkappaB activation in human HCT-116 cells assessed as inhibition of IL-8 production at 2 uM pretreated for 24 hrs followed by TNFalpha stimulation for 4 hrs by ELISA; type: cell-based; settings: time 28.0 hrs
Mus musculus [26] = test: In vivo inhibition of NFkappaB activation in athymic BALB/c mouse xenografted with human HT-29 cells assessed as reduction in A20 gene expression in tumor at 5 to 15 mg/kg, ip administered every other day and measured after 14 days by qRT-PCR analysis; type: functional, organism-based; settings: dose 5-15 mg/kg, time 14.0 day
HT-29 [27] = test: Induction of apoptosis in human HT-29 cells assessed as late apoptotic cells at 5 uM preincubated with Z-VAD-FMK for 1 hr followed by compound addition and measured after 24 hrs by Annexin V-FITC/PI staining based flow cytometric analysis (reference value: 7.01 %); type: functional
HT-29 [28] = test: Induction of apoptosis in human HT-29 cells assessed as necrotic cells at 0.25 uM incubated for 24 hrs by Annexin V-FITC/PI staining based flow cytometric analysis (reference value: 0.14 %); type: functional
HT-29 [29] = test: Induction of cell cycle arrest in human HT-29 cells assessed as accumulation of cells at S phase at 10 uM by RNase/PI staining based flow cytometry analysis (reference value: 39.34%); type: functional

SMILES: C[C@@H]1CC[C@H]2[C@H](C(=O)c3c(O)c([C@@]4(O)CC[C@@H](O)[C@H]5O[C@H]54)cn(O)c3=O)[C@H](C)C=C[C@@H]2C1
- inhibition (Mus musculus [1]): Active
- Activity (Mus musculus [2]): Active
- half-life [3]: 3.73 h
- inhibition [4]: Active
- IC50 (HCT-116 [5]): 930 nM
- inhibition (HCT-116 [6]): inactive
- Activity (HT-29 [7]): 23.75%
- Activity (HCT-116 [8]): Active
- Activity (Mus musculus [9]): Active
- inhibition (Mus musculus [10]): Active
- Activity (HCT-116 [11]): 40.03%
- Activity (HT-29 [12]): 7.39%
- Activity (HT-29 [13]): 28.3%
- Activity (HCT-116 [14]): 28.1%
- viability at 5 µM (HT-29 [15]): 39.3%
- Activity (HCT-116 [16]): 2.9%
- Activity [17]: Non-Toxic
- inhibition [18]: Active
- Activity (HT-29 [19]): 56.4%
- Activity (HT-29 [20]): Active
- viability at 5 µM (HCT-116 [21]): 15.6%
- inhibition (Mus musculus [22]): Active
- Activity (HT-29 [23]): Active
- Activity (HT-29 [24]): 37.6%
- inhibition [25]: Active
- inhibition (Mus musculus [26]): Active
- Activity (HT-29 [27]): 17.2%
- Activity (HT-29 [28]): 0.1%
- Activity (HT-29 [29]): 26.65%
